The values below come from patent US9399032B2, “Methods and compositions for treating degenerative and ischemic disorders” (The General Hospital Corporation, priority 2009, dated 2016).

Where a name gives a salt, the structure may show the parent alone.

The subject of experiment [1] is primary cortical neurons isolated from mouse embryos. The experiment is described as follows: OCR in primary cortical neurons. The class given is cell-based. The note with it: 5 and 10 μM. How it is done: Oxygen consumption rate (OCR) measurements following meclizine (5 and 10 μM) or antimycin (1 μM) addition at time 0 (min) in mouse primary cortical neurons obtained from day E14-15 embryos. Data are expressed as mean+/−SD (n≧3).
Meclizine was confirmed to shift a cell's relative reliance on OXPHOS versus glycolysis by whole cell bioenergetic kinetic assays. […] This was true in primary cardiomyocytes isolated from rat heart (FIG. 3K) and primary cortical neurons isolated from mouse embryos (FIG. 3L). Cardiomyocytes were exposed to the indicated concentration of meclizine for 20 min followed by oxygen measurement in a respiration chamber. Oxygen consumption rate (OCR) measurements were made following meclizine (5 and 10 μM) or antimycin (1 μM) addition at time 0 (min) in mouse primary cortical neurons obtained from day E14-15 embryos.

In a further experiment the test system is HIF1-α and HIF2-α. The experiment is described as follows: HIF stabilization (Western blot, HIF reporter). The class given is cell-based. The settings on record: HeLa cells, 50 μM, 6 h. Here is the method:
FIGS. 10A-10B present exemplary data showing the effect of meclizine on HIF-1α stabilization. 10A, HIF-1α and HIF-2α detection by western blot analysis of protein extract from HeLa cells after 6-h treatment with 0.1% DMSO, 100 μM deferoxamine (DFO) or […]. 10B, a bar graph showing HIF reporter activity measured in transiently transfected HeLa cells following 6 hours treatment with DMSO, 100 μM DFO or 50 μM Mec. NTC refers to non-transfected control. Data is representative of 2 independent experiments done in triplicate. (*P<0.05; two sided t-test).
To explore this hypothesis, activation of glycolysis via hypoxia inducible factor (HIF), a known transcriptional activator of glycolysis, was tested. HIF1-α and HIF2-α stabilization was assessed in HeLa cells by carrying out Western blot detection using anti-HIF1-α antibody (Cell Signaling Cat. No. 3716) and anti-HIF2-α antibody (Novus Biologicals). Protein was extracted from cells pre-treated with either 0.1% DMSO, 50 μM meclizine or 100 μM deferoxamine (Sigma Cat. No. D9533). Western detection of Glutaminase (GLS) was carried out on protein extracts from 293 cells using anti-GLS antibodies (gift from Dr. Javier Marquez, University of Malaga, Spain).
Background: Immunoblotting shows a protein as a band on a membrane.

In the case of `Cc1cccc(CN2CCN(C(c3ccccc3)c3ccc(Cl)cc3)CC2)c1` (racemic) [Meclizine, meclizine hydrochloride], in experiment [1], the “respiration (OCR) in primary cortical neurons” value was “inhibits respiration”. Further, the HIF stabilization result with HIF1-α and HIF2-α is on record as “No HIF stabilization”.
